Assay results published in patent US20210122763A1, “OGA INHIBITOR COMPOUNDS” (Janssen Pharmaceutica NV, priority 2018, published 2021).

Assays:
[1] = molecular target: T1, recombinant human Meningioma Expressed Antigen 5 (MGEA5), also referred to as O-GlcNAcase (OGA) (Homo sapiens, UniProt O60502); experiment: OGA biochemical assay (inhibition of FM-GlcNAc hydrolysis, fluorescence); conditions: for Emax: read-out: Enzymatic Emax (%); for IC50: read-out: Enzymatic hOGA, pIC50 (converted)
T1 construct: Full length OGA enzyme was purchased at OriGene (cat #TP322411); purchased OriGene TP322411
T1 sequence (O60502 1-916): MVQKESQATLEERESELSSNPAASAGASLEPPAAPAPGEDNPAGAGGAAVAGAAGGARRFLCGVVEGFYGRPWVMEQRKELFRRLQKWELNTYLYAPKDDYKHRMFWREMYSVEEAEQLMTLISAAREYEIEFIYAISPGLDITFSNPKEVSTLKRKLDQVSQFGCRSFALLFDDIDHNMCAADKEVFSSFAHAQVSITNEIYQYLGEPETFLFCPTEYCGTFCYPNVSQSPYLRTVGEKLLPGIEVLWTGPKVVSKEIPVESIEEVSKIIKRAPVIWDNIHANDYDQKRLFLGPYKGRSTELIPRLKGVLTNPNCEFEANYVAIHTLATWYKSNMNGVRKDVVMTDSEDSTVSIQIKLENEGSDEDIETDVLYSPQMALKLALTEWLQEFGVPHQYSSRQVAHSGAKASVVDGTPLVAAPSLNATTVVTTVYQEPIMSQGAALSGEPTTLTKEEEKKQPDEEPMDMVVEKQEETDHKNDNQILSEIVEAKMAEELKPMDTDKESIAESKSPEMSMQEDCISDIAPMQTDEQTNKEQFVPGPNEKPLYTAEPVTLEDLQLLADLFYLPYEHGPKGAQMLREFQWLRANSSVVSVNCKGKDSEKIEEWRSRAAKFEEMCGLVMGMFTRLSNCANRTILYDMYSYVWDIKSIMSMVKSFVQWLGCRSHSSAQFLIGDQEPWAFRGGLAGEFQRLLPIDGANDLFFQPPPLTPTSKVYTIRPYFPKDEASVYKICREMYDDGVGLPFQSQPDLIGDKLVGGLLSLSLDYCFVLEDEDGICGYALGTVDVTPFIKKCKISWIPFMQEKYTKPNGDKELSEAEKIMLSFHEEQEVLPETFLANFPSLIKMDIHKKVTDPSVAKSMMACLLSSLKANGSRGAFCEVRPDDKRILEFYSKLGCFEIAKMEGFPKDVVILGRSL
Summary of the method: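 Full-length OGA at 2 nM was pre-incubated 60 min at room temperature with compound, then FM-GlcNAc at 100 uM final was added in citrate/phosphate buffer pH 7.2 with 0.005% Tween-20. After 6 h at room temperature, carbonate pH 11.0 stopped the reaction. Fluorescence read at 485/538 nm; IC50 and Hill coefficient from curve fit against no-inhibitor and saturating-standard controls.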

OGA = molecular target: T2, OGA (Homo sapiens, UniProt O60502); experiment: OGA cellular assay (ICC detection of O-GlcNAcylated proteins in HEK293 cells inducible for P301L mutant human Tau); type: cell-based; conditions: 6 hours incubation; for Emax: HEK293, HEK293 cells inducible for P301L mutant human Tau, maximum = Thiamet G 200 uM; for EC50: HEK293 cells inducible for P301L mutant human Tau, read-out: Cellular hOGA, pEC50 (converted)
T2 construct: HEK293 cells inducible for P301L mutant human Tau (isoform 2N4R) were established at Janssen; endogenous in cells; host or cells: HEK293 cells inducible for P301L mutant human Tau (2N4R)
T2 sequence (O60502 1-916): T1 sequence (O60502 1-916)
Summary of the method: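 HEK293 cells with inducible P301L 2N4R Tau, seeded in low-glucose medium, were exposed to compounds for 6 hours (0.2% DMSO), then PFA-fixed and stained with CTD110.6. Imaging intensity at 488 nm measured O-GlcNAcylation, with Hoechst nuclei counts for toxicity. IC50s came from non-linear regression, with Thiamet G at 200 uM as maximum inhibition.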

SMILES | Emax [1] [%] | IC50 [1] [µM] | melting point [°C] | Emax (OGA) [%] | EC50 (OGA) [µM]
Cc1ncc(COC2CCN([C@@H](C)c3nc4c(cc3F)OCCO4)CC2)cn1 (single isomer, unassigned) [Compound 137] | 96 | 0.398 | 70.1 | 25 | > 1
Cc1cncc(OC2CCN(C(C)c3ccc4c(n3)OCCO4)CC2)n1 (stereo not drawn) [Compound 76] | 99 | 0.0794 | 91.71 | 36 | > 1
Cc1ncc(OC2CCN(C(C)c3ccc4c(n3)OCCC4)CC2)cn1.Cl (stereo not drawn) [Compound 139] | 95 | 0.2 | 208.1 | 31 | > 1
Cc1ncc(OC2CCN(C(C)c3nc4c(cc3F)OCCO4)CC2)cn1.Cl (stereo not drawn) [Compound 91] | 105 | 0.0158 | 134.6 | 86 | 0.2
Cc1ncc(OC2CCN(C(C)c3ccc4c(n3)OCCO4)CC2)cn1.Cl (stereo not drawn) [Compound 90] | 100 | 0.1 | 72.8 | 48 | > 1
Cc1cnc(OC2CCN(C(C)c3ccc4c(n3)OCCO4)CC2)cn1 (stereo not drawn) [Compound 141] | 97 | 0.2 | 119.6 | 51 | 0.794
Cc1ccc(NC2CCN(C(C)c3nc4c(cc3F)OCCO4)CC2)cn1 (stereo not drawn) [Compound 126] | 99 | 0.0251 | 138 | 73 | 0.0631
Cc1ncc(NC2CCN(C(C)c3nc4c(cc3F)OCCO4)CC2)cn1 (stereo not drawn) [Compound 127] | 98 | 0.02 | 209.9 | 81 | 0.135
Cc1cc(NC2CCN(C(C)c3nc4c(cc3F)OCCO4)CC2)cc(C)n1 (stereo not drawn) [Compound 133] | 97 | 0.0251 | 250 | 87 | 0.0501
Cc1nc(OC2CCN(C(C)c3nc4c(cc3F)OCCO4)CC2)ccc1C#N (stereo not drawn) [Compound 112] | 96 | 0.01 | 153.41 | 87 | 0.158

Next, values leading:

Emax [1] [%] | IC50 [1] [µM] | melting point [°C] | Emax (OGA) [%] | EC50 (OGA) [µM] | SMILES
104 | 0.0251 | 119.6 | 73 | 0.158 | CCOc1cc(OC2CCN(C(C)c3ccc4c(n3)OCCO4)CC2)cc(C)n1.Cl (stereo not drawn) [Compound 142]
99 | 0.00501 | 105.3 | 100 | 0.0174 | Cc1cc(OC2CCN([C@H](C)c3nc4c(cc3F)CCO4)CC2)cc(C)n1 (single isomer, unassigned) [Compound 143]
102 | 0.02 | 140.6 | 67 | 0.2 | Cc1ccc(OC2CCN(C(C)c3nc4c(cc3F)OCCO4)CC2)nc1C (stereo not drawn) [Compound 156]
98 | 0.2 | 168 | 30 | > 1 | Cc1ccc(OC2CCN(C(C)c3ccc4c(n3)OCCO4)CC2)nn1.Cl (stereo not drawn) [Compound 151]
95 | 0.0794 | 133 | 57 | 0.398 | CC(c1ccc2c(n1)OCCO2)N1CCC(Oc2ccc(C#N)nc2)CC1 (stereo not drawn) [Compound 150]
